Five compounds from ChEMBL document CHEMBL1137284, “Farnesoid X-activated receptor antagonists from a marine sponge Spongia sp” (Bioorg Med Chem Lett, 2006) can be followed below.

SMILES strings stand for the structures.

A short description of assay [1]: Cytotoxicity against CV1 cells transfected with human FXR by MTT method. Format: cell-based. Particulars: CV-1.
The next assay addresses T1, Bile acid receptor (Homo sapiens, UniProt Q96RI1).
T1 sequence (Q96RI1 whole entry): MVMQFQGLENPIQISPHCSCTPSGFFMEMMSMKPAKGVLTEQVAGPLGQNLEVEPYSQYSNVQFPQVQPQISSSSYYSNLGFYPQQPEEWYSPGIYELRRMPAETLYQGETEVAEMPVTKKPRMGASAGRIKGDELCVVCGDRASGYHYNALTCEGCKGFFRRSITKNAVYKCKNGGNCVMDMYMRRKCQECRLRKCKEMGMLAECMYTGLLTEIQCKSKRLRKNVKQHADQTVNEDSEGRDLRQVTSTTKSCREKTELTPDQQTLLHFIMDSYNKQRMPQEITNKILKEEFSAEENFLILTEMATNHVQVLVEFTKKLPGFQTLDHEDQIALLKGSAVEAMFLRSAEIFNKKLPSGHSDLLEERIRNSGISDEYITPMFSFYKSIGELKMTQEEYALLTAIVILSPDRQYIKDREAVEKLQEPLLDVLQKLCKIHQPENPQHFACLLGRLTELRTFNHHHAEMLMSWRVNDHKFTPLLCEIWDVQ
Briefly: Antagonist activity against FXR assessed as transactivation of luciferase reporter gene in CV1 cells. It counts as functional, cell-based, CV-1. (In general: In a reporter assay the amount or activity of a reporter protein is the signal.)

One may read the IC50 as the concentration needed to halve the response being measured. In the case of `CC(=O)OC[C@@]12CCC3C(C)(C)CCC[C@]3(C)C1C[C@@H](O)[C@@]1(C)C2CC=C2CO[C@@H](O)[C@@H]21` (stereo not given in full), the IC50 in assay [1] came out at 29.2 µM; on Bile acid receptor, 25.3 µM.
The like results for `CO[C@@H]1OCC2=CCC3[C@]4(C)CCC5C(C)(C)CCC[C@]5(C)C4C[C@@H](O)[C@]3(C)[C@H]21` (stereo not given in full) were, in that order, 86.9 µM and 24.8 µM.
With `CC1(C)CCC[C@@]2(C)C1CC[C@]1(CO)C2C[C@@H](O)[C@@]2(C)C1CC=C1CO[C@@H](O)[C@@H]12` (stereo not given in full), the IC50 in assay [1] was greater than 100 µM; on Bile acid receptor, 64.5 µM.
The like results for `CC(=O)OC[C@@]12CCC3C(C)(C)CCC[C@]3(C)C1C[C@@H](OC(C)=O)[C@@]1(C)C2CC=C2CO[C@@H](O)[C@@H]21` (stereo not given in full) were, in that order, 32.7 µM and 8.1 µM.
The like results for `CC(=O)O[C@@H]1CC2[C@@]3(C)CCCC(C)(C)C3CC[C@@]2(C)C2CC=C3CO[C@@H](O)[C@@H]3[C@]21C` (stereo not given in full) were, in that order, 98.5 µM and 81.1 µM.
